As usually defined, the IC50 is the concentration that gives 50% inhibition. The low end stands for greater potency in that assay, the high end for weaker potency in that assay.

This is an account of results in ChEMBL document CHEMBL1201861, “Genomics of Drug Sensitity in Cancer screening data, Wellcome Trust Sanger Institute”.

Assay [1] deals with MHH-CALL-2. Briefly: cells. Conditions: Homo sapiens, MHH-CALL-2. The class given is functional, cell-based, Homo sapiens.
Description: SANGER: Inhibition of human MHH-CALL-2 cell growth in a cell viability assay.
Assay [2] deals with CHP-126. Nature of the assay: cells. Type of assay: functional, cell-based, Homo sapiens. The settings on record: Homo sapiens, CHP-126.
Description: SANGER: Inhibition of human CHP-126 cell growth in a cell viability assay.
Assay [3] relates to EVSA-T. Nature of the assay: cells. The settings on record: Homo sapiens, EVSA-T. Type of assay: functional, cell-based, Homo sapiens.
Description: SANGER: Inhibition of human EVSA-T cell growth in a cell viability assay.
Assay [4] deals with NCI-H1417. Nature of the assay: cells. The class given is functional, cell-based, Homo sapiens. Conditions: Homo sapiens, NCI-H1417.
Description: SANGER: Inhibition of human NCI-H1417 cell growth in a cell viability assay.
Assay [5] deals with DMS-153. Briefly: cells. Type of assay: functional, cell-based, Homo sapiens. Conditions: Homo sapiens, DMS-153.
Description: SANGER: Inhibition of human DMS-153 cell growth in a cell viability assay.
Assay [6] concerns GDM-1. Nature of the assay: cells. Type of assay: functional, cell-based, Homo sapiens. Conditions: Homo sapiens, GDM-1.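 Also: cell viability readout used to measure growth inhibition of human GDM-1 cells.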
Description: SANGER: Inhibition of human GDM-1 cell growth in a cell viability assay.
Assay [7] relates to YT. Briefly: cells. Type of assay: functional, cell-based, Homo sapiens. The settings on record: Homo sapiens, YT.
Description: SANGER: Inhibition of human YT cell growth in a cell viability assay.
Assay [8] deals with LB647-SCLC. Nature of the assay: cells. Conditions: Homo sapiens, LB647-SCLC. The class given is functional, cell-based, Homo sapiens.
Description: SANGER: Inhibition of human LB647-SCLC cell growth in a cell viability assay.
Assay [9] has as its system MDA-MB-134-VI. Nature of the assay: cells. Type of assay: functional, cell-based, Homo sapiens. Conditions: Homo sapiens, MDA-MB-134-VI.
Description: SANGER: Inhibition of human MDA-MB-134-VI cell growth in a cell viability assay.
The test system of assay [10] is NCCIT. Nature of the assay: SANGER: Inhibition of human NCCIT cell growth in a cell viability assay. Conditions: Homo sapiens, NCCIT. The class given is functional, cell-based.
Assay [11] has as its system NCI-H2141. Briefly: cells. The settings on record: Homo sapiens, NCI-H2141. The class given is functional, cell-based, Homo sapiens.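 Also: growth inhibition of human NCI-H2141 cells, read out with a cell viability assay.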
Description: SANGER: Inhibition of human NCI-H2141 cell growth in a cell viability assay.
For assay [12], the system named is NCI-H187. Nature of the assay: cells. The class given is functional, cell-based, Homo sapiens. The settings on record: Homo sapiens, NCI-H187.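 Also: growth inhibition of NCI-H187 cells, read out as cell viability.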
Description: SANGER: Inhibition of human NCI-H187 cell growth in a cell viability assay.
The subject of assay [13] is BL-41. Nature of the assay: cells. Conditions: Homo sapiens, BL-41. Type of assay: functional, cell-based, Homo sapiens.
Description: SANGER: Inhibition of human BL-41 cell growth in a cell viability assay.
Assay [14] relates to KP-N-YN. Briefly: cells. The class given is functional, cell-based, Homo sapiens. The settings on record: Homo sapiens, KP-N-YN.
Description: SANGER: Inhibition of human KP-N-YN cell growth in a cell viability assay.

Consider `COc1cc(N2CCN(C)CC2)ccc1Nc1ncc2c(n1)N(C)c1ccccc1C(=O)N2C`, for which the IC50 in assay [1], in assay [2], in assay [3], in assay [4], in [5] and in assay [6] was over 8 µM throughout. In addition, the IC50 is 3.48 µM in [7]; over 8 µM in [8]; over 8 µM in [9]; 4.15 µM in [10]; over 8 µM in assay [11]; over 8 µM in [12]. The IC50 is 3.65 µM in [13] and over 8 µM in assay [14].

Consider `COc1cc2ncn(-c3cc(OCc4ccccc4S(C)(=O)=O)c(C#N)s3)c2cc1OC` [GSK-319347A], for which the IC50 in assay [1], in [2], in assay [3], in assay [4], in [5] and in [6] was over 5 µM in each case. Besides, the IC50 in assay [7], in assay [8], in [9], in assay [10], in assay [11] and in assay [12] was over 5 µM each time. Further, the IC50 in [13] and in assay [14] was over 5 µM each time.
